The source of these data is ChEMBL document CHEMBL1759975, “Development of selective and reversible pyrazoline based MAO-B inhibitors: virtual screening, synthesis and biological evaluation” (Bioorg Med Chem Lett, 2011).

For test [1], the target named is T1, Amine oxidase [flavin-containing] A (Rattus norvegicus, UniProt P21396).
T1 sequence (P21396 whole entry): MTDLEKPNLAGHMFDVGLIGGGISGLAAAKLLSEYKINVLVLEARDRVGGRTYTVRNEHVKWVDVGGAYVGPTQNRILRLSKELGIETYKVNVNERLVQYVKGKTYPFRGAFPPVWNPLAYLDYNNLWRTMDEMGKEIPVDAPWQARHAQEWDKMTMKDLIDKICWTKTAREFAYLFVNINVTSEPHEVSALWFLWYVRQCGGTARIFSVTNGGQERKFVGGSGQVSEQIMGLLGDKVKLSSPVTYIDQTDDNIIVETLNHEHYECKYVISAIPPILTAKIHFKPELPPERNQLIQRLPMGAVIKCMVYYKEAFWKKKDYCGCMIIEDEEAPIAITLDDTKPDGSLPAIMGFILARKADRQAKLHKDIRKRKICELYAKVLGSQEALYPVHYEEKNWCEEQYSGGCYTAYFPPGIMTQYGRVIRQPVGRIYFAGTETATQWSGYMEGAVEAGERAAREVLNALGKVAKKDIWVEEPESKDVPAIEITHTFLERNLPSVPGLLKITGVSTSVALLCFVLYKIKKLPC
Kind of test: Competitive inhibition of rat liver MAO-A after 60 mins using p-tyramine as substrate by spectrophotometry.

For test [2], the target named is T2, Amine oxidase [flavin-containing] B (Homo sapiens, UniProt P27338).
T2 sequence (P27338 whole entry): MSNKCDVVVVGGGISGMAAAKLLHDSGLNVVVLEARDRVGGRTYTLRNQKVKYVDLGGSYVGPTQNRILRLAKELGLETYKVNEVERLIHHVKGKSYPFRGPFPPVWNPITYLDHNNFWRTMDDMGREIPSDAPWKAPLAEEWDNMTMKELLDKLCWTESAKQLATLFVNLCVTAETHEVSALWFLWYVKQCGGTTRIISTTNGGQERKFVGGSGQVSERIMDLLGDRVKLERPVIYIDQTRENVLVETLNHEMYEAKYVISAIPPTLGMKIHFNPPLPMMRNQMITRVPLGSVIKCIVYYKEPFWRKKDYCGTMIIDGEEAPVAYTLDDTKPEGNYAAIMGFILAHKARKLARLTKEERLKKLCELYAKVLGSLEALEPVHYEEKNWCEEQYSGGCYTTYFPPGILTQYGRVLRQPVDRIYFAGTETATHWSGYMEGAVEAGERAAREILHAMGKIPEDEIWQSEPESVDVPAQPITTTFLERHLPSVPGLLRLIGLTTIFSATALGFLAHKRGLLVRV
Description: Competitive inhibition of human recombinant MAO-B after 60 mins using p-tyramine as substrate by spectrophotometry

Test [3] deals with T3, Amine oxidase [flavin-containing] B (Rattus norvegicus, UniProt P19643).
T3 sequence (P19643 whole entry): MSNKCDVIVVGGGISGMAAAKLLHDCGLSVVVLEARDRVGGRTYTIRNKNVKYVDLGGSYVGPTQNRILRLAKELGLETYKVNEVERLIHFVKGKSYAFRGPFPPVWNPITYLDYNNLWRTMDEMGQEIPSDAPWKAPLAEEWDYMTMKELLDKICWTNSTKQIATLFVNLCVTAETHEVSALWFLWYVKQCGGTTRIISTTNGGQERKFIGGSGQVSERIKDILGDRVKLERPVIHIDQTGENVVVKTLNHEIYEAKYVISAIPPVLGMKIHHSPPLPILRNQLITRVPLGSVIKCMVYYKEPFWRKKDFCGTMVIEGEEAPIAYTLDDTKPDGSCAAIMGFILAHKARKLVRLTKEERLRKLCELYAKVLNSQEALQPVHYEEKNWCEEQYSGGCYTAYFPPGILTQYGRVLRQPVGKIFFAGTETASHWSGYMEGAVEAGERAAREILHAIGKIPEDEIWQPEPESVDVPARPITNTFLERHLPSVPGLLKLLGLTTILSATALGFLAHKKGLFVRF
Kind of test: Competitive inhibition of rat liver MAO-B after 60 mins using p-tyramine as substrate by spectrophotometry.

Test [4] has as its target T4, Amine oxidase [flavin-containing] A (Homo sapiens, UniProt P21397).
T4 sequence (P21397 whole entry): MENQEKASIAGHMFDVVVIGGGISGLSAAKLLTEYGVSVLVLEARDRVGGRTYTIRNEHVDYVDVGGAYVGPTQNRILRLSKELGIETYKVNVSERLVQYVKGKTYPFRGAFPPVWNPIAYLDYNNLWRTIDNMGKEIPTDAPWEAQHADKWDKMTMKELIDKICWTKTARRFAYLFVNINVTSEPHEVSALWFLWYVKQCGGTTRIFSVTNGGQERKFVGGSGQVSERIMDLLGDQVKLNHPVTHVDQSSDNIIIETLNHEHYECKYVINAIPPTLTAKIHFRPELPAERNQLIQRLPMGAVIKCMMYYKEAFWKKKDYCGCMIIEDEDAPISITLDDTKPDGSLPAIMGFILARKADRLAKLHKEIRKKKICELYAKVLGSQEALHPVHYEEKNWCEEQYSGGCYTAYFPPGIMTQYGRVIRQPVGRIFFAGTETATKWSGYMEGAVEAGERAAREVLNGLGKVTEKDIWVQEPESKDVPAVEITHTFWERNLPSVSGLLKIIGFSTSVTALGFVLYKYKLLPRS
Kind of test: Competitive inhibition of human recombinant MAO-A after 60 mins using p-tyramine as substrate by spectrophotometry.

Molecules are shown by their SMILES.

One may read the Ki as a measure of affinity in units of concentration, obtained from inhibition or displacement. `c1ccc(C2CC(c3c4ccccc4cc4ccccc34)=NN2)nc1` (stereo not drawn): the Ki came out at 0.242 µM in test [1], 0.00575 µM in test [2], 0.00991 µM in test [3] and 0.205 µM in test [4].
For the molecule `Clc1ccc(C2CC(c3c4ccccc4cc4ccccc34)=NN2)cc1` (stereo not drawn), the Ki came to 0.32 µM in test [1], 0.0018 µM in test [2], 0.0021 µM in test [3] and 0.281 µM in test [4].
For `COc1ccc(C2CC(c3c4ccccc4cc4ccccc34)=NN2)cc1` (stereo not drawn), the Ki amounted to 0.23 µM in test [1] and 0.301 µM in test [4].
Consider `O=[N+]([O-])c1cccc(C2CC(c3c4ccccc4cc4ccccc34)=NN2)c1` (stereo not drawn), for which the Ki in test [1] was 0.0439 µM; in test [2], 0.00031 µM; in test [3], 0.00045 µM; in test [4], 0.0322 µM.
For `Cc1ccc(C2CC(c3c4ccccc4cc4ccccc34)=NN2)cc1` (stereo not drawn), the Ki was found to be 0.389 µM in test [1], 0.00356 µM in test [2], 0.0038 µM in test [3] and 0.25 µM in test [4].
In the case of `O=[N+]([O-])c1ccc(C2CC(c3c4ccccc4cc4ccccc34)=NN2)cc1` (stereo not drawn), the Ki in test [1] stood at 0.0201 µM; in test [2], 0.00115 µM; in test [3] it was 0.0023 µM; in test [4], 0.0171 µM.
On the same counts, the results for `Oc1ccc(C2CC(c3c4ccccc4cc4ccccc34)=NN2)c(O)c1` (stereo not drawn) are 0.0956 µM, 0.00554 µM, 0.00477 µM and 0.0815 µM.
On to `Oc1ccccc1C1CC(c2c3ccccc3cc3ccccc23)=NN1` (stereo not drawn), for which the Ki amounted to 0.0776 µM in test [1], 0.00735 µM in test [2], 0.00591 µM in test [3] and 0.0699 µM in test [4].
Take `c1ccc(C2CC(c3c4ccccc4cc4ccccc34)=NN2)cc1` (stereo not drawn): the Ki in test [1] came to 0.397 µM; in test [2], 0.00421 µM; in test [3] it was 0.00343 µM; in test [4], 0.332 µM.
Turning to `Oc1ccc(C2CC(c3c4ccccc4cc4ccccc34)=NN2)cc1` (stereo not drawn), the Ki in test [1] came out at 0.385 µM; in test [2], 0.00751 µM; in test [3] it was 0.00675 µM; in test [4], 0.225 µM.
